From patent publication US10793547B2, “Modulator of the cystic fibrosis transmembrane conductance regulator, pharmaceutical compositions, methods of treatment, and process for making the modulator” (Vertex Pharmaceuticals Incorporated, priority 2016, dated 2020)
Blank lines part the entries; values can stand above or below the molecule they belong to.

Columns and labels:
[1] = biological target: T1, F508del-CFTR (Homo sapiens, UniProt P13569, DEL508-508); assay: Membrane potential optical (FLIPR) assay for F508del-CFTR modulators in NIH 3T3 cells; format: cell-based; settings: NIH 3T3 cells expressing F508del; assay A1; read-out: CFTRdF508 Cor 3T3 FLIPR 384 CFTRdF508 MP 3T3 770 EC50
T1 construct: expressed in transfected cells
Excerpt: Membrane Potential Optical Methods for Assaying Properties of F508del-CFTR Modulators
The assay utilizes fluorescent voltage sensing dyes to measure changes in membrane potential using a fluorescent plate reader (e.g., FLIPR III, Molecular Devices, Inc.) as a readout for increase in functional F508del in NIH 3T3 cells. The driving force for the response is the creation of a chloride ion gradient in conjunction with channel activation and concurrent with compound treatment by a single liquid addition step after the cells have previously been loaded with a voltage sensing dye.
A1. Identification of F508del-CFTR Modulators
To identify modulators of F508del, a fluorescence based HTS assay format was developed. This HTS assay utilizes fluorescent voltage sensing dyes to measure changes in membrane potential on the FLIPR III as a measurement for increase in gating (conductance) of F508del NIH 3T3 cells. The driving force for the response is the creation of a chloride ion gradient in conjunction with channel activation and concurrent with compound treatment by a single liquid addition step after the cells have previously been loaded with a voltage sensing dye.
Bath Solution #1: (in mM) NaCl 160, KCl 4.5, CaCl2 2, MgCl2 1, HEPES 10, pH 7.4 with NaOH, Glucose 10.
Chloride-free bath solution: Chloride salts in Bath Solution #1 (above) are substituted with gluconate salts.
NIH3T3 mouse fibroblasts stably expressing F508del were used for optical measurements of membrane potential. The cells were maintained at 37° C. in 5% CO2 and 90% humidity in Dulbecco's modified Eagle's medium supplemented with 2 mM glutamine, 10% fetal bovine serum, 1×NEAA, β-ME, 1× pen/strep, and 25 mM HEPES in 175 cm^2 culture flasks. For all optical assays, the cells were seeded at 12,000 cells/well in 384-well matrigel-coated plates and cultured for 18-24 hrs at 37° C. for the potentiator assay. For the correction assay, the cells were cultured at 37° C. with and without compounds for 18-24 hours.

[2] = biological target: T2, human PXR (Homo sapiens, UniProt O75469); assay: PXR assay: PXR mediated CYP3A4 induction in DPX-2 cell line; format: cell-based; settings: DPX-2 cells
T2 construct: host or cells: DPX-2 cell line (derived from HepG2)
T2 sequence (O75469 1-434): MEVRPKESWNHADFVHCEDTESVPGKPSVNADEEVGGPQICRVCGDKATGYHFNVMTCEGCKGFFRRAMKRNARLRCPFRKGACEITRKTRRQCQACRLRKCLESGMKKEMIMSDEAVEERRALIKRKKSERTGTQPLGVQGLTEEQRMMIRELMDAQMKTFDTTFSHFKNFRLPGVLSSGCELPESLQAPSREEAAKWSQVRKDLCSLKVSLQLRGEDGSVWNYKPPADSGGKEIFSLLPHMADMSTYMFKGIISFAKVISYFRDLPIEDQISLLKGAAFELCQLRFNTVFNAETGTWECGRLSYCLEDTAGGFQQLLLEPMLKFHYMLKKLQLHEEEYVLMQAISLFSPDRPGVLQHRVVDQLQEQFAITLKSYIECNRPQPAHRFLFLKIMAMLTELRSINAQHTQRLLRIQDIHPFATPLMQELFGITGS
Method: D. Experimental Protocol for PXR Assay
The propensity for PXR mediated CYP3A4 induction is assessed using the DPX-2 cell line in vitro. This cell line, which has been licensed from Puracyp Inc. was derived from HepG2 cells and has been stably transfected with genes encoding human PXR as well as a modified luciferase reporter linked to the CYP3A4 promoter region and related distal and proximal enhancers.
The assay is run in 384 well format and each test article is administered in 11 doses ranging from 0.1 to 60 μM. On day 1, DPX-2 cells which have previously been expanded in-house and cryopreserved are thawed and seeded in tissue culture plates. The following day, media is changed and cells are cultured in media containing test article, vehicle control or the positive control compound, the clinically validated CYP3A4 inducer rifampicin. Cells are cultured in the presence of test article for 48 hours and then cell viability is assessed using fluorescence based assay (Cell Titer-Fluor, Promega) with an EnVision Plate Reader (PerkinElmer). Subsequently, CYP3A4 transactivation, which is proportional to luciferase activity, is measured by reading luminescense using the Promega One-Glo reagent system using the same plate reader.
Data processing within the Genedata software package allows reporting of max fold induction compared to vehicle control, an EC50 value for CYP3A4 inducers and an 11 point-dose response curve.

[3] = MDCK-Wild Type permeability, 96 well + 0.1% BSA; format: in vitro ADME; settings: dog, MDCK, A-B direction, read-out: MDCK-Wild Type-Permeability 96 well + 0.1% BSA Papp compound (A-B)
[4] = test system: Rat hepatocytes; assay: Hepatocyte clearance, rat hepatocytes; format: in vitro ADME; settings: percent unchanged

T1 sequence (P13569 with tags, fused parts or gaps DEL508-508): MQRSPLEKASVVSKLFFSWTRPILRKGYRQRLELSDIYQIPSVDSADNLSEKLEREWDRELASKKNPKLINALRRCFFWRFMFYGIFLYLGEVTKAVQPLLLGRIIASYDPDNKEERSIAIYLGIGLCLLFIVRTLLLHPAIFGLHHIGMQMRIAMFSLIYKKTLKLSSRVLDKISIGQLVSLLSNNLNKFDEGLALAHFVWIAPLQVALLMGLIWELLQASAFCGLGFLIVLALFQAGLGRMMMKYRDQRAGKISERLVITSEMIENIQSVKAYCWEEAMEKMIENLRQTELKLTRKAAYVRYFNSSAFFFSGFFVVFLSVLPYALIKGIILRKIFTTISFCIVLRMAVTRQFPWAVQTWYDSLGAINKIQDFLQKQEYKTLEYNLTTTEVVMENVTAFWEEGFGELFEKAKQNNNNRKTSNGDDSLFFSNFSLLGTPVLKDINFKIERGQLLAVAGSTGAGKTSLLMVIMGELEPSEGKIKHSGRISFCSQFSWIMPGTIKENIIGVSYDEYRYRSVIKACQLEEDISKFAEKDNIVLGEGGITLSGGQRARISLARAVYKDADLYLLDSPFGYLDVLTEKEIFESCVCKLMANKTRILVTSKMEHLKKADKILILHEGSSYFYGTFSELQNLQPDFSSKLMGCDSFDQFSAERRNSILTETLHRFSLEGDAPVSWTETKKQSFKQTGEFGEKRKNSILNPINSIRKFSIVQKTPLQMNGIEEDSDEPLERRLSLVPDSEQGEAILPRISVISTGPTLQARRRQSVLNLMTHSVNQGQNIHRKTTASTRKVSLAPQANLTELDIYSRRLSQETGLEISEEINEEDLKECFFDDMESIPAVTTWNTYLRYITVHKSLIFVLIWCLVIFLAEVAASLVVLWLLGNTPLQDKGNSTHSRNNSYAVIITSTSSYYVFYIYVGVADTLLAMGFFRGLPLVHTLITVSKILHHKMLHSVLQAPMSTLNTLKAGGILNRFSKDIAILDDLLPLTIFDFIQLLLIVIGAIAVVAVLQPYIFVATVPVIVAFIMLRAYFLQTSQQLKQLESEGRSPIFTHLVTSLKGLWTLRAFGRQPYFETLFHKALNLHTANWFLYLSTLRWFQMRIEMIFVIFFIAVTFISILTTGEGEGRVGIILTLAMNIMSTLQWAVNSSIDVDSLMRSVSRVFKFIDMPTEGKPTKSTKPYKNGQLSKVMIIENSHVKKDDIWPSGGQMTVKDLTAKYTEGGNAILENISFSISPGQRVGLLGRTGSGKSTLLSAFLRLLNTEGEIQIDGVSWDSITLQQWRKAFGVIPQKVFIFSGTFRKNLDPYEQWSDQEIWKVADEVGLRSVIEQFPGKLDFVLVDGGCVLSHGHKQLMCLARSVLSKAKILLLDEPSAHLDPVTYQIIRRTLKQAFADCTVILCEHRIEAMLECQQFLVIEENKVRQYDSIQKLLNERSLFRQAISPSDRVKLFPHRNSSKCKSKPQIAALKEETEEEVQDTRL

SMILES: C[C@@H]1CN(c2nc(-n3ccc(OCC(C)(C)C)n3)ccc2C(=O)NS(=O)(=O)c2ccc[nH]c2=O)C(C)(C)C1 [B, reference compound]
- EC50 [1]: 260 nM
- CYP3A4 Induction-PXR human PXR internal Max % Activity [2]: 3%
- Papp A→B [3]: 0.4 ×10⁻⁶ cm/s
- Hepatocyte clearance-Rat Rat hepatocytes CL pct_unchanged [4]: 13%

SMILES: C[C@@H]1CN(c2nc(-n3ccc(OCC4(C(F)(F)F)CC4)n3)ccc2C(=O)NS(=O)(=O)c2cn[nH]c2)C(C)(C)C1 [Compound 5, N-(1H-pyrazol-4-ylsulfonyl)-6-[3-[[1-(trifluoromethyl)cyclopropyl]methoxy]pyrazol-1-yl]-2-[(4S)-2,2,4-trimethylpyrrolidin-1-yl]pyridine-3-carboxamide]
- EC50 [1]: 1300 nM
- CYP3A4 Induction-PXR human PXR internal Max % Activity [2]: 0%
- Papp A→B [3]: 0.3 ×10⁻⁶ cm/s
- Hepatocyte clearance-Rat Rat hepatocytes CL pct_unchanged [4]: 33%

SMILES: C[C@@H]1CN(c2nc(-n3ccc(OCC4(C(F)(F)F)CC4)n3)ccc2C(=O)NS(=O)(=O)c2cnn(C)c2)C(C)(C)C1 [Compound 6, N-(1-methylpyrazol-4-yl)sulfonyl-6-[3-[[1-(trifluoromethyl)cyclopropyl]methoxy]pyrazol-1-yl]-2-[(4S)-2,2,4-trimethylpyrrolidin-1-yl]pyridine-3-carboxamide]
- EC50 [1]: 300 nM
- CYP3A4 Induction-PXR human PXR internal Max % Activity [2]: 0.9%
- Papp A→B [3]: 2.1 ×10⁻⁶ cm/s
- Hepatocyte clearance-Rat Rat hepatocytes CL pct_unchanged [4]: 53%

SMILES: C[C@@H]1CN(c2nc(-n3ccc(OCC4(C(F)(F)F)CC4)n3)ccc2C(=O)NS(=O)(=O)c2cnn(C(C)(C)C)c2)C(C)(C)C1 [Compound 8, N-(1-tert-butylpyrazol-4-yl)sulfonyl-6-[3-[[1-(trifluoromethyl)cyclopropyl]methoxy]pyrazol-1-yl]-2-[(4S)-2,2,4-trimethylpyrrolidin-1-yl]pyridine-3-carboxamide]
- EC50 [1]: 400 nM
- CYP3A4 Induction-PXR human PXR internal Max % Activity [2]: 10%
- Papp A→B [3]: 3.2 ×10⁻⁶ cm/s
- Hepatocyte clearance-Rat Rat hepatocytes CL pct_unchanged [4]: 62%

SMILES: Cc1nn(C)c(C)c1S(=O)(=O)NC(=O)c1ccc(-n2ccc(OCC3(C(F)(F)F)CC3)n2)nc1N1C[C@@H](C)CC1(C)C [Compound 16, 6-[3-[[1-(trifluoromethyl)cyclopropyl]methoxy]pyrazol-1-yl]-N-(1,3,5-trimethylpyrazol-4-yl)sulfonyl-2-[(4S)-2,2,4-trimethylpyrrolidin-1-yl]pyridine-3-carboxamide]
- EC50 [1]: 400 nM
- CYP3A4 Induction-PXR human PXR internal Max % Activity [2]: 13%
- Papp A→B [3]: 3.9 ×10⁻⁶ cm/s
- Hepatocyte clearance-Rat Rat hepatocytes CL pct_unchanged [4]: 10%

SMILES: Cc1nn(C)c(C)c1S(=O)(=O)NC(=O)c1ccc(-n2ccc(OCC(C)(C)C(F)(F)F)n2)nc1N1C[C@@H](C)CC1(C)C [Compound 17, 6-[3-(3,3,3-trifluoro-2,2-dimethyl-propoxy)pyrazol-1-yl]-N-(1,3,5-trimethylpyrazol-4-yl)sulfonyl-2-[(4S)-2,2,4-trimethylpyrrolidin-1-yl]pyridine-3-carboxamide]
- EC50 [1]: 170 nM
- CYP3A4 Induction-PXR human PXR internal Max % Activity [2]: 3%
- Papp A→B [3]: 3.8 ×10⁻⁶ cm/s
- Hepatocyte clearance-Rat Rat hepatocytes CL pct_unchanged [4]: 19%

SMILES: Cc1nn(C)c(C)c1S(=O)(=O)NC(=O)c1ccc(-n2ccc(OCCC3(C(F)(F)F)CC3)n2)nc1N1C[C@@H](C)CC1(C)C [Compound 18, 6-[3-[2-[1-(trifluoromethyl)cyclopropyl]ethoxy]pyrazol-1-yl]-N-(1,3,5-trimethylpyrazol-4-yl)sulfonyl-2-[(4S)-2,2,4-trimethylpyrrolidin-1-yl]pyridine-3-carboxamide]
- EC50 [1]: 170 nM
- CYP3A4 Induction-PXR human PXR internal Max % Activity [2]: 5%
- Papp A→B [3]: 8 ×10⁻⁶ cm/s
- Hepatocyte clearance-Rat Rat hepatocytes CL pct_unchanged [4]: 0%

SMILES: Cc1nn(C)cc1S(=O)(=O)NC(=O)c1ccc(-n2ccc(OC3CC3C(F)(F)F)n2)nc1N1C[C@@H](C)CC1(C)C (stereo partly drawn) [Compound 34, N-(1,3-dimethylpyrazol-4-yl)sulfonyl-6-[3-[2-(trifluoromethyl)cyclopropoxy]pyrazol-1-yl]-2-[(4S)-2,2,4-trimethylpyrrolidin-1-yl]pyridine-3-carboxamide]
- EC50 [1]: 610 nM
- CYP3A4 Induction-PXR human PXR internal Max % Activity [2]: 6%
- Papp A→B [3]: 7.5 ×10⁻⁶ cm/s
- Hepatocyte clearance-Rat Rat hepatocytes CL pct_unchanged [4]: 39%

The next lines start with the values.

- EC50 [1]: 50 nM
- CYP3A4 Induction-PXR human PXR internal Max % Activity [2]: 5%
- Papp A→B [3]: 1.1 ×10⁻⁶ cm/s
- Hepatocyte clearance-Rat Rat hepatocytes CL pct_unchanged [4]: 30%
SMILES: Cc1nn(C)cc1S(=O)(=O)NC(=O)c1ccc(-n2ccc(OCC3(C(F)(F)F)CC3)n2)nc1N1CC(C(C)(C)C)CC1(C)C (single isomer, unassigned) [Compound 54, 2-(4-tert-butyl-2,2-dimethyl-pyrrolidin-1-yl)-N-(1,3-dimethylpyrazol-4-yl)sulfonyl-6-[3-[[1-(trifluoromethyl)cyclopropyl]methoxy]pyrazol-1-yl]pyridine-3-carboxamide]

- EC50 [1]: 110 nM
- CYP3A4 Induction-PXR human PXR internal Max % Activity [2]: 2%
- Papp A→B [3]: 1 ×10⁻⁶ cm/s
- Hepatocyte clearance-Rat Rat hepatocytes CL pct_unchanged [4]: 56%
SMILES: Cc1nn(C)cc1S(=O)(=O)NC(=O)c1ccc(-n2ccc(OCCC(C3CC3)C3CC3)n2)nc1N1C[C@@H](C)CC1(C)C [Compound 38, 6-[3-(3,3-dicyclopropylpropoxy)pyrazol-1-yl]-N-(1,3-dimethylpyrazol-4-yl)sulfonyl-2-[(4S)-2,2,4-trimethylpyrrolidin-1-yl]pyridine-3-carboxamide]

- EC50 [1]: 80 nM
- CYP3A4 Induction-PXR human PXR internal Max % Activity [2]: 4%
- Papp A→B [3]: 1.3 ×10⁻⁶ cm/s
- Hepatocyte clearance-Rat Rat hepatocytes CL pct_unchanged [4]: 20%
SMILES: Cc1nn(C)cc1S(=O)(=O)NC(=O)c1ccc(-n2ccc(OCC3C[C@@H]4CC[C@H]3C4)n2)nc1N1C[C@@H](C)CC1(C)C (stereo partly drawn) [Compound 50, N-(1,3-dimethylpyrazol-4-yl)sulfonyl-6-[3-[[(1S,4R)-norbornan-2-yl]methoxy]pyrazol-1-yl]-2-[(4S)-2,2,4-trimethylpyrrolidin-1-yl]pyridine-3-carboxamide]

- EC50 [1]: 150 nM
- CYP3A4 Induction-PXR human PXR internal Max % Activity [2]: 6%
- Papp A→B [3]: 2.9 ×10⁻⁶ cm/s
- Hepatocyte clearance-Rat Rat hepatocytes CL pct_unchanged [4]: 29%
SMILES: Cc1nn(C)cc1S(=O)(=O)NC(=O)c1ccc(-n2ccc(O[C@H]3C[C@@H]4CC[C@H]3C4)n2)nc1N1C[C@@H](C)CC1(C)C [Compound 51, N-(1,3-dimethylpyrazol-4-yl)sulfonyl-6-[3-[(1S,2S,4R)-norbornan-2-yl]oxypyrazol-1-yl]-2-[(4S)-2,2,4-trimethylpyrrolidin-1-yl]pyridine-3-carboxamide]

- EC50 [1]: 170 nM
- CYP3A4 Induction-PXR human PXR internal Max % Activity [2]: 2%
- Papp A→B [3]: 2 ×10⁻⁶ cm/s
- Hepatocyte clearance-Rat Rat hepatocytes CL pct_unchanged [4]: 18%
SMILES: Cc1nn(C)cc1S(=O)(=O)NC(=O)c1ccc(-n2ccc(OCC3C4CCC3CC4)n2)nc1N1C[C@@H](C)CC1(C)C (stereo partly drawn) [Compound 52, N-(1,3-dimethylpyrazol-4-yl)sulfonyl-6-[3-(norbornan-7-ylmethoxy)pyrazol-1-yl]-2-[(4S)-2,2,4-trimethylpyrrolidin-1-yl]pyridine-3-carboxamide]

- EC50 [1]: 210 nM
- CYP3A4 Induction-PXR human PXR internal Max % Activity [2]: 10%
- Hepatocyte clearance-Rat Rat hepatocytes CL pct_unchanged [4]: 19%
SMILES: C[C@@H]1CN(c2nc(-n3ccc(OCC4CCC4)n3)ccc2C(=O)NS(=O)(=O)c2cccnc2N)C(C)(C)C1 [D, reference compound]
